Source: patent publication US4089947A, “Antibiotic compositions containing validamycin compounds” (priority 1976, dated 1978)

Experiments:
[1] = test system: Pellicularia sasakii; assay: Rice sheath blight control test, preventive (prophylactic); format: in vivo; details: 10 days after application, untreated 34.4cm
Protocol: (§1) Rice sheath blight control test
(§2) Rice Plants (variety: Kinmaze) are planted in earthen pots 9 cm in diameter, 3 stocks per pot. Seedlings 80 days after potting are tested and 6 pots each of them are grouped.
(§3) Pathogenic fungi Pellicularia sasakii is cultivated on a plate of potato infusion-sugar-agar at 30°C for 48 hours, and its agar disc 10mm in diameter is cut out from a peripheral colony. The disc is inserted into the inside space of the leaf sheath near the soil surface, a disc per stem. The pots are kept in a PVC shelter at the temperature of 32°-25° C and the relative humidity of 100-70%. Inoculation is carried out immediately after the applied drug has been air-dried in the prophylactic test, and 3 days before application in the remedial test.
(§4) 10 days after application of the drug, the length of each stem from ground level to the upper edge of the lesion is directly measured.

[2] = test system: plant diseases; assay: Control of plant diseases (general statement); format: in vivo; details: for controlling effect against plant diseases, for example, the sheath blight of the rice plant: application in vivo; for effectiveness against sheath blight and stem rot of rice plant, damping off and sclerotial blight of vegetables, flowering plants and lumber seedlings: in vivo
[3] = Acute toxicity for Oryzias latipes (median lethal dose, 48 hours); format: in vivo; details: medaka, leaving in water solution, read-out: TLm
Protocol: (§5) The toxicity of the antibiotics can be confirmed, for instance, by administering each of the validamycins C, D, E and F, and validoxylamines A and B, intravenously to mice and measuring the LD50 value, or by measuring the median lethal dose (48 hours) for Oryzias latipes.

[4] = test system: men and beasts, as well as to fish; assay: Harmlessness to men, beasts and fish (general statement); details: in vivo
[5] = test system: Pellicularia sasakii; assay: Abnormal branching of hyphal tips of Pellicularia sasakii (agar dilution bioassay); format: cell-based; details: for highest dilution factor that causes an abnormal branching at the hyphal tips of Pellicularia sasakii: 1 mg./ml. aqueous solution as stock solution; for dilution unit (maximum dilution which produces abnormal branching): aqueous solution containing 1000 γ/ml., 27° C for 40 hours
Protocol: Therefore, the bioassay of the antibiotics should be conducted in the following manner.
Pellicularia sasakii is used as the test organism employing plain agar as the assay medium. The test organism is cultivated on a potato (sucrose) agar slant for 2 to 5 days, and the resulting culture is used to inoculate at the center of a 9-cm Petri dish plate of modified Pfeffer's medium, which is then incubated at 27° C for 2 days. By the end of this period, the mycelium will have spread over the entire surface of the plate. The growth on the circumference about 3 to 3.5 cm in radius from the center is cut out with a cork borer and the agar disc thus obtained is used as the inoculum.
A serial dilution series of agar plants containing varying concentrations of the antibiotics is prepared in the same manner as a conventional agar dilution method.
A glass disc of 8 mm in diameter and about 0.2 mm thick, is placed in the center of each of the aforementioned dilution series of agar plates, and the agar disc inoculum is then placed on the glass disc. After incubation at 27° C for 40 hours, the result is evaluated. […] The term dilution unit means the value of maximum dilution which produces such abnormal branching.
Modified Pfeffer's medium, which is employed in this assay, has the following composition.
Before using the medium, the following vitamins are added in the specified amounts. (Weight per ml. of medium)
When a 1 mg./ml. aqueous solution of each of validamycins C, D, E and F and validoxylamines A and B is used as a stock solution, the highest dilution factor that causes an abnormal branching at the hyphal tips of Pellicularia sasakii is as follows.

[6] = Acute toxicity in mice, intravenous injection; format: in vivo; details: mouse, in vivo
Protocol: as §5

[7] = test system: useful plants; assay: Effect on useful plants (general statement); format: in vivo; details: even when applied in a high concentration
[8] = test system: Cladosporium fulvum; assay: Tomato leaf mold control test; format: in vivo; details: 50 ppm; 14 days after inoculation; inoculated 3 days before application
Protocol: Tomato leaf mold control test
Tomato plants (variety: ponterosa) are planted in 12 cm in diameter pots, one plant per pot. The seedlings 50 days after potting are used, 6 pots/group.
Applied at the rate of 100 ml./6 pots/group as per Experiment 1.
Pathogenic fungi Cladosporium fulvum is cultured on a potato infusion-sucrose plate at 20° C for 14 days, and a suspension of conidia (5×10^5 /ml.) is prepared from the culture.
The plants are spray-inoculated with the suspension 3 days before application of the drug, at the rate of 5 ml. per pot. The pots are kept in an inoculation chamber at 25° C for 24 hours, and, then they are transferred to a greenhouse.
14 days after inoculation, the specific ratio of the average area of lesion in the leaves is measured.

[9] = test system: Pellicularia sasakii; assay: Rice sheath blight control test, remedial; format: in vivo; details: inoculation 3 days before application, untreated 34.4cm
Protocol: as §1, §2, §3, §4

[10] = test system: Rhyzoctonia solani; assay: Cucumber damping-off control test; format: in vivo; details: 14 days after sowing
Protocol: Cucumber damping-off control test
Rhyzoctonia solani is cultured on barley medium at 28° C for 5 days. A field soil sample is packed into clay pots 9 cm in diameter, which are then sterilized with steam. The chaff inoculum is evenly worked into the cover soil of each pot to the depth of about 3 cm, at the rate of 2g./pot. The pots are kept in an incubation chamber at 28° C for 4 days and, then, transferred to a greenhouse.
As per Experiment 1, the drug is sprayed onto the soil surface at the rate of 30 ml./6 pots/group.
Healthy seeds of cucumber (variety: Yonyo) are sown by burial in the pots immediately after treatment, at the rate of 10 seeds/pot. The pots are then placed in a greenhouse at 32°-28° C.
14 days after sowing, the results are evaluated against the following coefficients of lesion and the degrees of damage are calculated.
Coefficients of lesion (I)
0.5 : Root hairs alone are slightly affected.
1 : Aerial portions near soil surface and roots affected.
2 : Early stage of damping-off.
3 : Affected at germination; growth inhibited.
Degree of damage (%) =(Σ(nI))/3 × N × 100 wherein n means the number of samples corresponding to each coefficient of lesion and N means the total number of plants.

[11] = pKa' (neutralization, in aqueous solution); format: physicochemical; details: water
Excerpt: 3. The elementary analysis, the molecular formulas as calculated therefrom, pKa' values, neutralization equivalents (molecular weight) and optical rotation values are given in Table 2.

[12] = test system: bacteria and fungi; assay: Antimicrobial potency / growth inhibition in vitro; format: cell-based
[13] = Solubilities; format: physicochemical

Structure (SMILES) | Preventive effect (percent of the average length of lesion/stem per control untreated) ([1]; 3 ppm) [%] | Preventive effect (percent of the average length of lesion/stem per control untreated) ([1]; 10 ppm) [%] | Preventive effect (percent of the average length of lesion/stem per control untreated) ([1]; 30 ppm) [%] | Preventive effect (percent of the average length of lesion/stem per control untreated) ([1]; 100 ppm) [%] | Preventive effect (percent of the average length of lesion/stem per control untreated) ([1]; 300 ppm) [%] | controlling effect against plant diseases, for example, the sheath blight of the rice plant [2] | effectiveness against sheath blight and stem rot of rice plant, damping off and sclerotial blight of vegetables, flowering plants and lumber seedlings [2] | LC50 at 48 h [3] [µg/mL] | harmfulness to men and beasts, as well as to fish [4] | highest dilution factor that causes an abnormal branching at the hyphal tips of Pellicularia sasakii [5] | dilution unit (maximum dilution which produces abnormal branching) [5] [dilution unit/ml.] | LD50 [6] [mg/kg] | effect on germination, growth, yield and other features of useful plants [7] | Specific area of lesion [8] [%] | Remedial effect (percent of the average length of lesion/stem per control untreated) ([9]; 10 ppm) [%] | Remedial effect (percent of the average length of lesion/stem per control untreated) ([9]; 30 ppm) [%] | Remedial effect (percent of the average length of lesion/stem per control untreated) ([9]; 100 ppm) [%] | Remedial effect (percent of the average length of lesion/stem per control untreated) ([9]; 300 ppm) [%] | Degree of damage ([10]; 5 ppm) [%] | Degree of damage ([10]; 20 ppm) [%] | further results
OCC1=CC(NC2CC(CO)C(O)C(O)C2O)C(O)C(O)C1O (centres unmarked) [Validoxylamine A] | 28 | 4 | 1 | 0 | 0 | excellent controlling effect | very effective | > 1000 | substantially harmless | 100 | 100 | > 2000 | do not substantially affect | 6 | 28 | 14 | 10 | 7 | 84 | 6 | Remedial effect (percent of the average length of lesion/stem per control untreated) ([9]; 3 ppm): 83%; Degree of damage ([10]; 80 ppm): 0%; pKa [11]: 6.2 ± 0.2; antimicrobial potency / growth inhibition of bacteria and fungi in vitro [12]: no antimicrobial potency; solubility in methanol [13]: soluble
OCC1=C[C@H](NC2C(O)C(O)C(O)C(CO)C2O)[C@H](O)[C@@H](O)[C@@H]1O (some centres unmarked) [Validoxylamine B] | 49 | 47 | 32 | 16 | 8 | excellent controlling effect | very effective | > 1000 | substantially harmless | 10 | 10 | > 2000 | do not substantially affect | 36 | 93 | 75 | 51 | 10 | 100 | 100 | Degree of damage ([10]; 80 ppm): 75%; pKa [11]: 5 ± 0.2; antimicrobial potency / growth inhibition of bacteria and fungi in vitro [12]: no antimicrobial potency; solubility in methanol [13]: more sparingly soluble; solubility in pyridine ([13]; pyridine): more sparingly soluble
